This is an account of results in patent US20090299044A1 (priority 2006, published 2009).

Bridge positions count the residues as written; N and C are the ends. Square brackets hold non-standard residues; d marks the D form. Peptide text beside a SMILES is read from it. 1Nal = N[C@@H](Cc1cccc2ccccc12)C(=O)O

One assay concerns the target T1, human Kv1.3 (CHO) (Homo sapiens, UniProt P22001).
T1 construct: expressed in transfected cells; host or cells: CHO
Kind of assay: cell-based.

The next assay deals with T2, human Kv1.1 (HEK293) (Homo sapiens, UniProt Q09470).
T2 construct: expressed in transfected cells; host or cells: HEK293
Kind of assay: cell-based.

The IC50 is the point on the concentration scale where inhibition reaches its midpoint. A high value points to lower potency.

T1 sequence (P22001 whole entry): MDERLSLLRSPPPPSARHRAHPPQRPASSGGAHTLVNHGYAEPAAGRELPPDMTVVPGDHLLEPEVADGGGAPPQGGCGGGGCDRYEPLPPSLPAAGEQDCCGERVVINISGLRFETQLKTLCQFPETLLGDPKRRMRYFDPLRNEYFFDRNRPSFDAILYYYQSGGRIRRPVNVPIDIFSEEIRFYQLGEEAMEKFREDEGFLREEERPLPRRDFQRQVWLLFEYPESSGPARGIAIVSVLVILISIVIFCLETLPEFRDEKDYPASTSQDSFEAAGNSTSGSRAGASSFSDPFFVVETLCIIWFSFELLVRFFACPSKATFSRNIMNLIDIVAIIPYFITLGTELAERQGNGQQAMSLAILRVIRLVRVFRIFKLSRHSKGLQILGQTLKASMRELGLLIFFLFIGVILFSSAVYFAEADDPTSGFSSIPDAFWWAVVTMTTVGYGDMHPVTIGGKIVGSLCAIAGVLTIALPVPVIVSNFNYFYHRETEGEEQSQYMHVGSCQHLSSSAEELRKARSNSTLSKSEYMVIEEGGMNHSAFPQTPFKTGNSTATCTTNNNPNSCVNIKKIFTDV
T2 sequence (Q09470 whole entry): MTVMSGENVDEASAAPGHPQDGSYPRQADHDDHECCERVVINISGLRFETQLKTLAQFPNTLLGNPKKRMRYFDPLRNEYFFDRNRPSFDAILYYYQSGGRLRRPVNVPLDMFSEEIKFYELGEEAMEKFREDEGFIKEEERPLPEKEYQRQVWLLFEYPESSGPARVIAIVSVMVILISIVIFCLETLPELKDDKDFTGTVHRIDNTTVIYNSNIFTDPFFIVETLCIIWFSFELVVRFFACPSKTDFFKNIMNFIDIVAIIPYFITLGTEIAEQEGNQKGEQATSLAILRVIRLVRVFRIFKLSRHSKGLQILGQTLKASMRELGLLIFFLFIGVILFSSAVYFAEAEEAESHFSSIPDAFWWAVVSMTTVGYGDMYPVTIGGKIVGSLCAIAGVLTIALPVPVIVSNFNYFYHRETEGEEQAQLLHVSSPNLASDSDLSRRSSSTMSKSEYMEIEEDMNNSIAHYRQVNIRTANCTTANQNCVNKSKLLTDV

In the case of `CC[C@H](C)[C@@H]1NC(=O)[C@H](CCCCN)NC(=O)[C@@H](NC(=O)[C@H](C)NC(=O)[C@@H](NC(=O)[C@H](CC(N)=O)NC(=O)[C@@H](NC(=O)[C@@H](NC(=O)[C@@H](NC(=O)CN)C(C)C)[C@@H](C)CC)[C@@H](C)CC)C(C)C)CSSC[C@@H]2NC(=O)[C@H](CCCCN)NC(=O)CNC(=O)[C@H](Cc3ccccc3)NC(=O)[C@H](CCCNC(=N)N)NC(=O)[C@H](CCSC)NC(=O)CNC(=O)[C@H](C)NC(=O)[C@H](CCCCN)NC(=O)[C@H](CCCCN)NC(=O)[C@@H]3CSSC[C@@H](C(=O)N[C@H](C(=O)N4CCC[C@H]4C(=O)N[C@@H](CCCCN)C(=O)O)[C@@H](C)O)NC(=O)[C@H](Cc4c[nH]cn4)NC(=O)[C@H](CSSC[C@H](NC(=O)[C@H](CCC(N)=O)NC(=O)[C@H](CCCNC(=N)N)NC(=O)[C@H](CO)NC1=O)C(=O)N[C@@H](CC(C)C)C(=O)N[C@@H](CCC(=O)O)C(=O)N1CCC[C@H]1C(=O)N3)NC(=O)[C@H](CCCCN)NC(=O)CNC(=O)[C@H](CC(N)=O)NC(=O)[C@H](CCSC)NC2=O` [K7A] (H-GVIINVACKISRQCLEPCKKAGMRFGKCMNGKCHCTPK-OH; disulfide 8-28, 14-33, 18-35), the IC50 against human Kv1.3 (CHO) worked out at 0.181 nM; at human Kv1.1 (HEK293) it was 0.0219 nM.

For `CC[C@H](C)[C@@H]1NC(=O)[C@H](CCCCN)NC(=O)[C@@H](NC(=O)[C@H](CCC(=O)O)NC(=O)[C@@H](NC(=O)[C@H](CC(N)=O)NC(=O)[C@@H](NC(=O)[C@@H](NC(=O)[C@@H](NC(=O)CN)C(C)C)[C@@H](C)CC)[C@@H](C)CC)C(C)C)CSSC[C@@H]2NC(=O)[C@H](CCCCN)NC(=O)CNC(=O)[C@H](Cc3ccccc3)NC(=O)[C@H](CCCNC(=N)N)NC(=O)[C@H](CCSC)NC(=O)CNC(=O)[C@H](C)NC(=O)[C@H](CCCCN)NC(=O)[C@H](CCCCN)NC(=O)[C@@H]3CSSC[C@@H](C(=O)N[C@H](C(=O)N4CCC[C@H]4C(=O)N[C@@H](CCCCN)C(=O)O)[C@@H](C)O)NC(=O)[C@H](Cc4c[nH]cn4)NC(=O)[C@H](CSSC[C@H](NC(=O)[C@H](CCC(N)=O)NC(=O)[C@H](CCCNC(=N)N)NC(=O)[C@H](CO)NC1=O)C(=O)N[C@@H](CC(C)C)C(=O)N[C@@H](CCC(=O)O)C(=O)N1CCC[C@H]1C(=O)N3)NC(=O)[C@H](CCCCN)NC(=O)CNC(=O)[C@H](CC(N)=O)NC(=O)[C@H](CCSC)NC2=O` [K7E] (H-GVIINVECKISRQCLEPCKKAGMRFGKCMNGKCHCTPK-OH; disulfide 8-28, 14-33, 18-35), the IC50 is 0.0142 nM against human Kv1.3 (CHO) and under 0.00152 nM on human Kv1.1 (HEK293).

Turning to `CC[C@H](C)[C@@H]1NC(=O)[C@H](CCCCN)NC(=O)[C@@H](NC(=O)[C@H](Cc2cccc3ccccc23)NC(=O)[C@@H](NC(=O)[C@H](CC(N)=O)NC(=O)[C@@H](NC(=O)[C@@H](NC(=O)[C@@H](NC(=O)CN)C(C)C)[C@@H](C)CC)[C@@H](C)CC)C(C)C)CSSC[C@@H]2NC(=O)[C@H](CCCCN)NC(=O)CNC(=O)[C@H](Cc3ccccc3)NC(=O)[C@H](CCCNC(=N)N)NC(=O)[C@H](CCSC)NC(=O)CNC(=O)[C@H](C)NC(=O)[C@H](CCCCN)NC(=O)[C@H](CCCCN)NC(=O)[C@@H]3CSSC[C@@H](C(=O)N[C@H](C(=O)N4CCC[C@H]4C(=O)N[C@@H](CCCCN)C(=O)O)[C@@H](C)O)NC(=O)[C@H](Cc4c[nH]cn4)NC(=O)[C@H](CSSC[C@H](NC(=O)[C@H](CCC(N)=O)NC(=O)[C@H](CCCNC(=N)N)NC(=O)[C@H](CO)NC1=O)C(=O)N[C@@H](CC(C)C)C(=O)N[C@@H](CCC(=O)O)C(=O)N1CCC[C@H]1C(=O)N3)NC(=O)[C@H](CCCCN)NC(=O)CNC(=O)[C@H](CC(N)=O)NC(=O)[C@H](CCSC)NC2=O` [K7Nal] (H-GVIINV[1Nal]CKISRQCLEPCKKAGMRFGKCMNGKCHCTPK-OH; disulfide 8-28, 14-33, 18-35), the IC50 is 0.0236 nM at human Kv1.3 (CHO) and under 0.00152 nM at human Kv1.1 (HEK293).

As for `CC[C@H](C)[C@@H]1NC(=O)[C@H](CCCCN)NC(=O)[C@@H](NC(=O)[C@H](CCCNC(=N)N)NC(=O)[C@@H](NC(=O)[C@H](CC(N)=O)NC(=O)[C@@H](NC(=O)[C@@H](NC(=O)[C@@H](NC(=O)CN)C(C)C)[C@@H](C)CC)[C@@H](C)CC)C(C)C)CSSC[C@@H]2NC(=O)[C@H](CCCCN)NC(=O)CNC(=O)[C@H](Cc3ccccc3)NC(=O)[C@H](CCCNC(=N)N)NC(=O)[C@H](CCSC)NC(=O)CNC(=O)[C@H](C)NC(=O)[C@H](CCCCN)NC(=O)[C@H](CCCCN)NC(=O)[C@@H]3CSSC[C@@H](C(=O)N[C@H](C(=O)N4CCC[C@H]4C(=O)N[C@@H](CCCCN)C(=O)O)[C@@H](C)O)NC(=O)[C@H](Cc4c[nH]cn4)NC(=O)[C@H](CSSC[C@H](NC(=O)[C@H](CCC(N)=O)NC(=O)[C@H](CCCNC(=N)N)NC(=O)[C@H](CO)NC1=O)C(=O)N[C@@H](CC(C)C)C(=O)N[C@@H](CCC(=O)O)C(=O)N1CCC[C@H]1C(=O)N3)NC(=O)[C@H](CCCCN)NC(=O)CNC(=O)[C@H](CC(N)=O)NC(=O)[C@H](CCSC)NC2=O` [K7R] (H-GVIINVRCKISRQCLEPCKKAGMRFGKCMNGKCHCTPK-OH; disulfide 8-28, 14-33, 18-35), the IC50 is 0.0132 nM at human Kv1.3 (CHO) and under 0.00152 nM at human Kv1.1 (HEK293).

On to `CC[C@H](C)[C@@H]1NC(=O)[C@H](C)NC(=O)[C@@H](NC(=O)[C@H](CCCCN)NC(=O)[C@@H](NC(=O)[C@H](CC(N)=O)NC(=O)[C@@H](NC(=O)[C@@H](NC(=O)[C@@H](NC(=O)CN)C(C)C)[C@@H](C)CC)[C@@H](C)CC)C(C)C)CSSC[C@@H]2NC(=O)[C@H](CCCCN)NC(=O)CNC(=O)[C@H](Cc3ccccc3)NC(=O)[C@H](CCCNC(=N)N)NC(=O)[C@H](CCSC)NC(=O)CNC(=O)[C@H](C)NC(=O)[C@H](CCCCN)NC(=O)[C@H](CCCCN)NC(=O)[C@@H]3CSSC[C@@H](C(=O)N[C@H](C(=O)N4CCC[C@H]4C(=O)N[C@@H](CCCCN)C(=O)O)[C@@H](C)O)NC(=O)[C@H](Cc4c[nH]cn4)NC(=O)[C@H](CSSC[C@H](NC(=O)[C@H](CCC(N)=O)NC(=O)[C@H](CCCNC(=N)N)NC(=O)[C@H](CO)NC1=O)C(=O)N[C@@H](CC(C)C)C(=O)N[C@@H](CCC(=O)O)C(=O)N1CCC[C@H]1C(=O)N3)NC(=O)[C@H](CCCCN)NC(=O)CNC(=O)[C@H](CC(N)=O)NC(=O)[C@H](CCSC)NC2=O` [K9A] (H-GVIINVKCAISRQCLEPCKKAGMRFGKCMNGKCHCTPK-OH; disulfide 8-28, 14-33, 18-35), for which the figures for the half-maximal inhibitory concentration (IC50) against human Kv1.3 (CHO) and against human Kv1.1 (HEK293) were 0.166 nM and 0.0406 nM, respectively.

In the case of `CC[C@H](C)[C@@H]1NC(=O)[C@H](CCC(=O)O)NC(=O)[C@@H](NC(=O)[C@H](CCCCN)NC(=O)[C@@H](NC(=O)[C@H](CC(N)=O)NC(=O)[C@@H](NC(=O)[C@@H](NC(=O)[C@@H](NC(=O)CN)C(C)C)[C@@H](C)CC)[C@@H](C)CC)C(C)C)CSSC[C@@H]2NC(=O)[C@H](CCCCN)NC(=O)CNC(=O)[C@H](Cc3ccccc3)NC(=O)[C@H](CCCNC(=N)N)NC(=O)[C@H](CCSC)NC(=O)CNC(=O)[C@H](C)NC(=O)[C@H](CCCCN)NC(=O)[C@H](CCCCN)NC(=O)[C@@H]3CSSC[C@@H](C(=O)N[C@H](C(=O)N4CCC[C@H]4C(=O)N[C@@H](CCCCN)C(=O)O)[C@@H](C)O)NC(=O)[C@H](Cc4c[nH]cn4)NC(=O)[C@H](CSSC[C@H](NC(=O)[C@H](CCC(N)=O)NC(=O)[C@H](CCCNC(=N)N)NC(=O)[C@H](CO)NC1=O)C(=O)N[C@@H](CC(C)C)C(=O)N[C@@H](CCC(=O)O)C(=O)N1CCC[C@H]1C(=O)N3)NC(=O)[C@H](CCCCN)NC(=O)CNC(=O)[C@H](CC(N)=O)NC(=O)[C@H](CCSC)NC2=O` [K9E] (H-GVIINVKCEISRQCLEPCKKAGMRFGKCMNGKCHCTPK-OH; disulfide 8-28, 14-33, 18-35), the IC50 against human Kv1.3 (CHO) was 0.0318 nM; on human Kv1.1 (HEK293), 0.111 nM.

For `CC[C@H](C)[C@@H]1NC(=O)[C@H](Cc2cccc3ccccc23)NC(=O)[C@@H](NC(=O)[C@H](CCCCN)NC(=O)[C@@H](NC(=O)[C@H](CC(N)=O)NC(=O)[C@@H](NC(=O)[C@@H](NC(=O)[C@@H](NC(=O)CN)C(C)C)[C@@H](C)CC)[C@@H](C)CC)C(C)C)CSSC[C@@H]2NC(=O)[C@H](CCCCN)NC(=O)CNC(=O)[C@H](Cc3ccccc3)NC(=O)[C@H](CCCNC(=N)N)NC(=O)[C@H](CCSC)NC(=O)CNC(=O)[C@H](C)NC(=O)[C@H](CCCCN)NC(=O)[C@H](CCCCN)NC(=O)[C@@H]3CSSC[C@@H](C(=O)N[C@H](C(=O)N4CCC[C@H]4C(=O)N[C@@H](CCCCN)C(=O)O)[C@@H](C)O)NC(=O)[C@H](Cc4c[nH]cn4)NC(=O)[C@H](CSSC[C@H](NC(=O)[C@H](CCC(N)=O)NC(=O)[C@H](CCCNC(=N)N)NC(=O)[C@H](CO)NC1=O)C(=O)N[C@@H](CC(C)C)C(=O)N[C@@H](CCC(=O)O)C(=O)N1CCC[C@H]1C(=O)N3)NC(=O)[C@H](CCCCN)NC(=O)CNC(=O)[C@H](CC(N)=O)NC(=O)[C@H](CCSC)NC2=O` [K9Nal] (H-GVIINVKC[1Nal]ISRQCLEPCKKAGMRFGKCMNGKCHCTPK-OH; disulfide 8-28, 14-33, 18-35), the IC50 against human Kv1.3 (CHO) worked out at 0.0658 nM; against human Kv1.1 (HEK293), 0.00292 nM.

Take `CC[C@H](C)[C@@H]1NC(=O)[C@H](CCCNC(=N)N)NC(=O)[C@@H](NC(=O)[C@H](CCCCN)NC(=O)[C@@H](NC(=O)[C@H](CC(N)=O)NC(=O)[C@@H](NC(=O)[C@@H](NC(=O)[C@@H](NC(=O)CN)C(C)C)[C@@H](C)CC)[C@@H](C)CC)C(C)C)CSSC[C@@H]2NC(=O)[C@H](CCCCN)NC(=O)CNC(=O)[C@H](Cc3ccccc3)NC(=O)[C@H](CCCNC(=N)N)NC(=O)[C@H](CCSC)NC(=O)CNC(=O)[C@H](C)NC(=O)[C@H](CCCCN)NC(=O)[C@H](CCCCN)NC(=O)[C@@H]3CSSC[C@@H](C(=O)N[C@H](C(=O)N4CCC[C@H]4C(=O)N[C@@H](CCCCN)C(=O)O)[C@@H](C)O)NC(=O)[C@H](Cc4c[nH]cn4)NC(=O)[C@H](CSSC[C@H](NC(=O)[C@H](CCC(N)=O)NC(=O)[C@H](CCCNC(=N)N)NC(=O)[C@H](CO)NC1=O)C(=O)N[C@@H](CC(C)C)C(=O)N[C@@H](CCC(=O)O)C(=O)N1CCC[C@H]1C(=O)N3)NC(=O)[C@H](CCCCN)NC(=O)CNC(=O)[C@H](CC(N)=O)NC(=O)[C@H](CCSC)NC2=O` [K9R] (H-GVIINVKCRISRQCLEPCKKAGMRFGKCMNGKCHCTPK-OH; disulfide 8-28, 14-33, 18-35): the IC50 on human Kv1.3 (CHO) was found to be 0.012 nM; against human Kv1.1 (HEK293) it was 0.00201 nM.
